Structures can show the parent of a compound that is named as a salt.
Columns and labels:
HT1197 cells = test: Cell-based assay, anti-proliferative activity, MELK-negative control (Cell Counting Kit-8, 72 hours); set-up: species or system human; conditions: Homo sapiens, HT1197, 72 h, read-out: IC50 (μM) (HTll97)
Description: 100 micro-L of cell suspension was seeded onto 96-well microtiter plate (ViewPlate-96FTC, PerkinElmer). The initial cell concentration of 22Rv1, T47D, A549, DU4475, and HT1197 were 3,000 cells/well, 2,000 cells/well and 2,500 cells/well, respectively. Cellular growth was determined using Cell Counting Kit-8 (DOJINDO) at 72 hours after the exposure of the candidate inhibitors. […] Accurate IC50 values were calculated as described previously.

A549 cells = test: Cell-based assay, anti-proliferative activity (Cell Counting Kit-8, 72 hours); set-up: species or system human; conditions: Homo sapiens, A549, 72 h, read-out: IC50 (μM) (A549)
Summary of the method: (§1)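 Cells seeded at 2,000–3,000 cells/well and exposed to candidate MELK inhibitors for 72 hours; growth measured with Cell Counting Kit-8. IC50 values calculated from the growth read-out.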

DU4475 cells = test: as above; set-up: species or system human; conditions: Homo sapiens, DU-4475, 72 h, read-out: IC50 (μM) (DU4475)
Summary of the method: as §1

T47D cells = test: as above; set-up: species or system human; conditions: Homo sapiens, T47D, 72 h, read-out: IC50 (μM) (T47D)
Summary of the method: as §1

22Rv1 cells = test: as above; set-up: species or system human; conditions: Homo sapiens, 22Rv1, 72 h, read-out: IC50 (μM) (22Rvl)
Summary of the method: as §1

MELK = MELK (Homo sapiens, UniProt Q14680); test: Kinase assay (IMAP fluorescence polarization, FITC-labeled histone H3 peptide); assay type: biochemical; conditions: 50 micro-M ATP
Summary of the method: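 Kinase (0.8 ng/μL) reacted with 100 nM FITC-histone H3 peptide and 50 μM ATP in 20 mM HEPES, 0.3 mM MgCl2, 2 mM DTT, 0.01% Tween-20, pH 7.4, for 1 hour at room temperature. Phosphorylation read by IMAP fluorescence polarization after adding binding solution; IC50 from four-parameter fit.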

MELK, sequence (Q14680 whole entry, looked up): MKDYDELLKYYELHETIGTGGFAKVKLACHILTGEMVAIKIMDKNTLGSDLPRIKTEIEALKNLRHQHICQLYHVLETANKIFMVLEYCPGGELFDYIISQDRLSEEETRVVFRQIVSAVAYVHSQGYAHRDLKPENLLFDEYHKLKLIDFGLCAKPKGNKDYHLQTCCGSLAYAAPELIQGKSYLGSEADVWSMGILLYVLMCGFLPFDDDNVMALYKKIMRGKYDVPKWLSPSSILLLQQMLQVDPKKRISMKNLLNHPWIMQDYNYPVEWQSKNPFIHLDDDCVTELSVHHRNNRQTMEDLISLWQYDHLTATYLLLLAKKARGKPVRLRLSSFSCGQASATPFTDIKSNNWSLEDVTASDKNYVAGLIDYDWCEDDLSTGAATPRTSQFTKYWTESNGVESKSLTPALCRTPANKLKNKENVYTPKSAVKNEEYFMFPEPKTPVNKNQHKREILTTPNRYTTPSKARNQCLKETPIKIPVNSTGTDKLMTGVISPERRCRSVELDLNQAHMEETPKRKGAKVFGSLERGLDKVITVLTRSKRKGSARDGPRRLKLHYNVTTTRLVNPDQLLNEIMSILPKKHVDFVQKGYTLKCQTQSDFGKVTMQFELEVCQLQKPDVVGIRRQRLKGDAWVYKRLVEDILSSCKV

Row | SMILES | IC50 (HT1197 cells) [µM] | IC50 (A549 cells) [µM] | IC50 (DU4475 cells) [µM] | IC50 (T47D cells) [µM] | IC50 (22Rv1 cells) [µM] | IC50 (MELK) [µM]
1 | CC(=O)c1cnc2ccc(-c3cc(F)c(O)c(Cl)c3)nc2c1Nc1ccc(N2CCC(N(C)C)C2)nc1 (stereo not drawn) [Example 52, 1-[6-(3-Chloro-5-fluoro-4-hydroxyphenyl)-4-{6-[3-(dimethylamino)pyrrolidin-1-yl]pyridin-3-ylamino}-1,5-naphthyridin-3-yl]ethanone trihydrochloride] | 2 | 0.39 | 0.4 | 0.18 | 0.44 | 0.027
2 | CNC1CCN(c2ccc(Nc3c(C(C)=O)cnc4ccc(-c5cc(Cl)c(O)c(Cl)c5)nc34)cn2)C1 (stereo not drawn) [Example 53, 1-(6-(3,5-Dichloro-4-hydroxyphenyl)-4-{6-[3-(methylamino)pyrrolidin-1-y]pyridin-3-ylamino}-1,5-naphthyridin-3-yl)ethanone trihydrochloride] | 100 | 0.2 | 0.071 | 0.042 | 0.078 | 0.0015
3 | CNC1CCN(c2ccc(Nc3c(C(C)=O)cnc4ccc(-c5cc(F)c(O)c(Cl)c5)nc34)cn2)C1 (stereo not drawn) [Example 54, 1-(6-(3-Chloro-5-fluoro-4-hydroxyphenyl)-4-{6-[3-(methylamino)pyrrolidin-1-yl]pyridin-3-ylamino}-1,5-naphthyridin-3-yl)ethanone trihydrochloride] | 3.9 | 0.17 | 0.11 | 0.04 | 0.086 | 0.012
4 | CC(=O)c1cnc2ccc(-c3ccc4[nH]cnc4c3)nc2c1N[C@H]1CC[C@H](CN(C)C)CC1 [Example 55, 1-(6-(1H-Benzo[d]imidazol-5-yl)-4-{trans-4-[(dimethylamino)methyl]cyclohexylamino}-1,5-naphthyridin-3-yl)ethanone trihydrochloride] | 2 | 0.25 | 0.65 | 0.084 | 0.3 | 0.017
5 | CC(=O)c1cnc2ccc(-c3ccncc3)nc2c1N[C@H]1CC[C@H](CN(C)C)CC1 [Example 56, 1-{4-[4-(trans-4-Dimethylamino)methylcyclohexylamino]-6-(pyridin-4-yl)-1,5-naphthyridin-3-yl}ethanone trihydrochloride] | 1.7 | 0.52 | 0.46 | 0.38 | 0.86 | 0.016
6 | CC(=O)c1cnc2ccc(-c3cnc(C#N)nc3)nc2c1N[C@H]1CC[C@H](CN(C)C)CC1 [Example 57, 5-(7-Acetyl-8-{trans-4-[(dimethylamino)methyl]cyclohexylamino}-1,5-naphthyridin-2-yl)pyrimidine-2-carbonitrile] | 0.38 | 0.56 | 0.22 | 0.089 | 0.24 | 0.0012
7 | CC(=O)c1cnc2ccc(-c3c(C)n[nH]c3C)nc2c1N[C@H]1CC[C@H](CN(C)C)CC1 [Example 58, 1-(6-(3,5-Dimethyl-1H-pyrazol-4-yl)-4-{trans-4-[(dimethylamino)methyl]cyclohexylamino}-1,5-naphthyridin-3-yl)ethanone trihydrochloride] | 10 | 3 | 5.9 | 1.6 | 6.1 | 1
8 | CC(=O)c1cnc2ccc(-c3cc(C)c(O)c(C)c3)nc2c1N[C@H]1CC[C@H](CN(C)C)CC1 [Example 59, 1-(4-{trans-4-[(Dimethylamino)methyl]-cyclohexylamino}-6-(4-hydroxy-3,5-dimethylphenyl)-1,5-naphthyridin-3-yl) ethanone dihydrochloride] | 7.5 | 0.23 | 0.21 | 0.39 | 2.5 | 0.0047
9 | CC(=O)c1cnc2ccc(-c3cc(Cl)c(O)c(Cl)c3)nc2c1Nc1ccc(CN2CCCC2)cc1 [Example 60, dihydrochloride] | 1.1 | 0.11 | 0.041 | 0.066 | 0.1 | 0.0043
10 | CC(=O)c1cnc2ccc(-c3cc(Cl)c(O)c(Cl)c3)nc2c1N[C@H]1CC[C@H](CN2CCCC2)CC1 [Example 61, 1-{6-(3,5-Dichloro-4-hydroxyphenyl)-4-[trans-4-(pyrrolidin-1-ylmethyl)cyclohexylamino]-1,5-naphthyridin-3-yl}ethanone dihydrochloride] | 0.15 | 0.012 | 0.0044 | 0.0069 | 0.011 | 0.0004
11 | CC(=O)c1cnc2ccc(-c3cc(F)c(O)c(Cl)c3)nc2c1N[C@H]1CC[C@H](CN2CCCC2)CC1 [Example 62, 1-(6-(3-Chloro-5-fluoro-4-hydroxyphenyl)-4-{[trans-4-(pyrrolidin-1-ylmethyl)cyclohexyl]amino}-1,5-naphthyridin-3-yl)ethanone dihydrochloride] | 0.091 | 0.011 | 0.0037 | 0.0034 | 0.0073 | 0.0009
12 | CC(=O)c1cnc2ccc(-c3cc(Cl)c(O)c(Cl)c3)nc2c1N[C@H]1CC[C@H](CN2CCN(C)CC2)CC1 [Example 63, 1-(6-(3,5-Dichloro-4-hydroxyphenyl)-4-{trans-4-[(4-methylpiperazin-1-yl)methyl]cyclohexyl-amino}-1,5-naphthyridin-3-yl)ethanone trihydrochloride] | 0.13 | 0.02 | 0.0092 | 0.016 | 0.025 | 0.0008
13 | CC(=O)c1cnc2ccc(-c3cc(Cl)c(O)c(Cl)c3)nc2c1Nc1ccc(N2CCCC(N)C2)nc1 (stereo not drawn) [Example 64, 1-(4-{[6-(3-Aminopiperidin-1-yl)pyridin-3-yl]amino}-6-(3,5-dichloro-4-hydroxyphenyl)-1,5-naphthyridin-3-yl)ethanone trihydrochloride] | 2.9 | 0.07 | 0.016 | 0.0064 | 0.016 | 0.0012
14 | CC(=O)c1cnc2ccc(-c3cc(F)c(O)c(Cl)c3)nc2c1Nc1ccc(N2CCCC(N)C2)nc1 (stereo not drawn) [Example 65, 1-(4-{[6-(3-Aminopiperidin-1-yl)pyridin-3-yl]amino}-6-(3-chloro-5-fluoro-4-hydroxyphenyl)-1,5-naphthyridin-3-yl)ethanone trihydrochloride] | 0.74 | 0.021 | 0.015 | 0.0047 | 0.013 | 0.0031
15 | CC(=O)c1cnc2ccc(-c3cc(Cl)c(O)c(Cl)c3)nc2c1N[C@H]1CC[C@H](N)CC1 [Example 66, 1-{4-[trans-(4-Aminocyclohexyl)amino]-6-(3,5-dichloro-4-hydroxyphenyl)-1,5-naphthyridin-3-yl}-ethanone dihydrochloride] | 10 | 0.016 | 0.001 | 0.0018 | 0.0045 | 0.0018
16 | CC(=O)c1cnc2ccc(-c3cc(F)c(O)c(Cl)c3)nc2c1N[C@H]1CC[C@H](N)CC1 [Example 67, 1-{4-[trans-(4-Aminocyclohexyl)amino]-6-(3-chloro-5-fluoro-4-hydroxyphenyl)-1,5-naphthyridin-3-yl}ethanone dihydrochloride] | 2.8 | 0.022 | 0.0012 | 0.0019 | 0.0061 | 0.0012
17 | CC(=O)c1cnc2ccc(-c3cc(F)c(O)c(Cl)c3)nc2c1N[C@H]1CC[C@H](CN2CCN(C)CC2)CC1 [Example 68, 1-(6-(3-Chloro-5-fluoro-4-hydroxyphenyl)-4-{trans-4-[4-methylpiperazin-1-yl)methyl]-cyclohexylamino}-1,5-naphthyridin-3-yl)ethanone trihydrochloride] | 0.11 | 0.026 | 0.012 | 0.012 | 0.039 | 0.0026
18 | CC(=O)c1cnc2ccc(-c3cc(F)c(O)c(Cl)c3)nc2c1N[C@H]1CC[C@H](NC(=O)C(N)C(C)C)CC1 (stereo partly drawn) [Example 69, N-(trans-4-{[3-Acetyl-6-(3-chloro-5-fluoro-4-hydroxyphenyl)-1,5-naphthyridin-4-yl]amino}-cyclohexyl)-2-amino-3-methylbutanamide dihydrochloride] | 2.5 | 0.064 | 0.013 | 0.007 | 0.025 | 0.0012
19 | CC(=O)c1cnc2ccc(-c3cc(Cl)c(O)c(Cl)c3)nc2c1N[C@H]1CC[C@H](CN2CCNCC2)CC1 [Example 70, 1-{6-(3,5-Dichloro-4-hydroxyphenyl)-4-[trans-4-(piperazin-1-ylmethyl)cyclohexylamino]-1,5-naphthyridin-3-yl}ethanone trihydrochloride] | 3.9 | 0.084 | 0.011 | 0.021 | 0.031 | 0.0006

Source: US9067937B2 (priority 2012, dated 2015)
